# Measured values taken from patent US7083655B2, “Hair dye composition” (Kao Corporation, priority 2002, dated 2006).
# Test: Measurement of pKa value (spectrophotometric titration)
# Format: physicochemical
# Details: 2×10^−5 mol/l, titrated from pH 2 with NaOH, UV-visible spectrum; for pKa value determined: DMF/water (1/1); for pKa: DMF/water (1/1) solution, read-out: pKa value determined
# Protocol: pKa values of the azo dyes described below were determined by the following method; The dye was dissolved in a solution of a DMF/water (1/1) volume ratio to a final concentration of 2×10^−5 mol/l. After the resulting solution was adjusted to pH 2, using 1.0 mol/l hydrochloric acid, the solution was titrated with aqueous 1.0 mol/l sodium hydroxide solution. Recording the change of the visible ultra-violet absorption spectrum, the inflection point was determined by regression analysis.
SMILES,pKa value determined,pKa
Cc1cc(/N=N/c2nc(-c3cccc(NS(C)(=O)=O)c3)ns2)cc(NCOc2ccccc2NS(C)(=O)=O)c1O [Dye D-34],4.39,
CC(C)CSc1nnc(/N=N/c2cc(Cl)c(O)c(Cl)c2Cl)s1 [Dye D-45],,2.28
Cc1cc(/N=N/c2snc(C)c2C#N)ccc1O [Dye D-37],,6.37
CC(=O)Nc1cc(/N=N/c2nncs2)c(NC(C)=O)cc1O [Dye D-46],,5.15
Oc1c(NCOc2ccncc2)cc(/N=N/c2nc(-c3ccccc3)no2)c2ccccc12 [Dye D-49],5.39,
Cc1nsc(/N=N/c2cc(F)c(O)c(F)c2)c1C#N [Dye D-43],,3.9
COc1cc(/N=N/c2snc(C)c2C#N)ccc1O [Dye D-39],,5.52
Oc1cc(Cl)c(/N=N/c2nc3ccc(Cl)cc3s2)cc1Cl [Dye D-40],,4.46
Cc1nsc(/N=N/c2ccc(O)c(Cl)c2)c1C#N [Dye D-41],,5.02

# Second part, the compound after the results:
pKa value determined,pKa,SMILES
,3.05,CCSc1nsc(/N=N/c2cc(Cl)c(O)c(NC(=O)CC)c2)n1 [Dye D-30]
,6.04,CC(=O)Nc1cc(/N=N/c2nncs2)ccc1O [Dye D-29]
,3.56,Oc1c(Cl)cc(/N=N/c2nncs2)cc1Cl [Dye D-56]
,3.5,CCSc1nsc(/N=N/c2cc(Cl)c(O)cc2Cl)n1 [Dye D-38]
